# Measurements from US10662150B2, “Sulfonic acid salt composition and use thereof for color stabilization” (L. BRÜGGEMANN GMBH & CO. KG, priority 2016, dated 2020).
# Test: Aqueous solubility according to OECD 105
compound,measurement,value
2-hydroxy-2-sulfonatoacetic acid disodium salt,Solubility in water at 23° C.,7%
"O=C([O-])C(O)S(=O)(=O)[O-].[Zn+2] (centres unmarked) [Example 1, Zinc-Salt of 2-Hydroxy-2-Sulfonatoacetic Acid]",Solubility in water at 23° C.,39%
